# Experimental data reported in paper doi:10.1101/2024.07.10.602890, “H105A peptide eye drops promote photoreceptor survival in murine and human models of retinal degeneration” (bioRxiv, 2024).
# Ends that are not written are not given here.
# What was measured:
# [1] = system: rd10 and rd10/Serpinf1−/− mice; experiment: BAX and BCL2 immunofluorescence of retinal sections after peptide eye drops; type: in vivo, mouse; conditions: eye drops 1 mg/ml, vs vehicle, five retinas per group
# Description: Fig. 3: Eyedrops of 17-mer and H105A peptides decreased the BAX/BCL2 ratio in photoreceptors of rd10 and rd10/Serpinf1−/− mice (A and B) Immunostaining of retinas. Representative fluorescent micrographs of retinas from rd10 (A) and rd10/Serpinf1^−/− (B) mice treated with 17-mer or H105A peptides at 1 mg/ml via eye drops, along with vehicle-treated controls. Immunostaining was performed with antibodies against BAX or BCL2 (green), and DAPI (blue). Histograms show quantification of immunofluorescence intensity for BAX and BCL2 markers. […] Each individual data point represents the average of one retina, with statistical significance determined by unpaired t-test (***p < 0.0001, ****p < 0.00001). Scale bar = 40 μm.
# (§1) Both eyes were oriented before enucleation to allow sectioning along the dorsal/ventral axis. Enucleated eyes from rd10 and rd10 × Serpinf1^−/− mice were incised in the cornea and fixed in 2.5% glutaraldehyde for 20 min and then in 10% neutral buffered formalin at 4°C for at least 48 h, followed by paraffin embedding, sectioning, and staining with either H&E or immunofluorescence procedures, as previously described ([28]). For fluorescence microscopy, antibodies, and 0.1 μg/ml DAPI were used to immunostain and nuclei counterstain the sections, respectively. Antibodies used in the study are in Table S3. Images were acquired using a ZEIS 700 confocal microscope. Fluorescence intensity was quantified using ImageJ as previously described ([14], [26]).
# [2] = system: rd10 and rd10/Serpinf1−/− mice; experiment: Retinal histology (H&E), OS length and ONL thickness spider plots after peptide eye drops; type: in vivo, mouse; conditions: for outer nuclear layer (ONL) thickness vs vehicle-treated or untreated eyes / photoreceptor outer segment (OS) length vs vehicle-treated or untreated eyes / ONL thickness (spider plots): daily eye drops 1 mg/ml, P21; for outer nuclear layer (ONL) thickness vs vehicle-treated or untreated eyes / photoreceptor outer segment (OS) length vs vehicle-treated or untreated eyes: rd10 and rd10/Serpinf1−/− mice; for ONL thickness (spider plots): rd10 mice only
# Description: Fig. 4: Effect of eyedrops of 17-mer and H105A peptides on photoreceptor morphology of rd10 and rd10/Serpinf1−/− mice (A and B) Histological Evaluation. Representative microphotographs of retina sections from rd10 (A) and rd10/Serpinf1−/− (B) mice treated with 17-mer, H105A, or R99A peptides at 1 mg/ml, or with vehicle (HBSS), compared to wild type C57Bl/6J mice. Sections were stained with hematoxylin and eosin. Spider Plot illustrate the thickness of the outer nuclear layer (ONL) in rd10 (C) and rd10/Serpinf1−/− (D) mice. Five retinas per group were analyzed and each data point represents the average ± SEM per location relative to the optic nerve (ON), analyzed using One-way ANOVA. Statistics for comparisons between H105A and vehicle is indicated by #p < 0.05, #p < 0.05, ##p < 0.01, ###p < 0.001). Statistics for comparisons between H105A and 17-mer is indicated by *p < 0.05. Scale bar = 50 μm.
# as §1
# To generate spider plots, the ONL thickness was measured from images acquired with light microscopy of the retina sections stained with H&E or images of retina sections stained with DAPI with a dorsal-ventral orientation. The ONL thickness in the entire retina sections was measured at 5 different positions from both sides of the optic nerve (ON) using ImageJ, as described before ([28]). Alternatively, for DAPI stained images, a customed macro implemented in ImageJ was used to select only the ONL.
# Figure S2. Effects of extending the timeline or administering eye drops of 17-mer[H105A] peptide every other day in rd10 mic e.
# Eye drops of H105A peptide solution were administered to r d1 0 mice either daily (Fig. S2A) or every other day (Fi g. S 2D). A total of 5 µl of a solution containing H105A peptide at 1 mg/ml in HBSS were applied as eye drops. The vehicle HBSS was added as eye drops in the contralateral eyes. […]
# ONL thickness in r d10 mice compared to vehicle was also observed (Fi g. S 2E), with an improvement in a- […]
# efficacy of peptide H105A eye drops either daily or every other day in an extended timeline to stabilize photoreceptor morphology and light response function loss in r d10 mice, however, these were less efficacious than daily H105A peptide eye drops.
# (A) Scheme showing a timeline of peptide administration via daily eye drops of H105A peptide to r d10 mice between P15 and P2 4. […]
# (B) Representative microphotographs of retinal cross sections of r d1 0 treated as in Fig. S2A and stained with hematoxylin and eosin are shown. […]
# (D) Scheme showing a timeline of peptide administration via eye drops of H105A peptide to rd10 mice starting at P15 every other day until P23. Assays were at P25.
# (E) Representative microphotographs of retinal cross sections of r d1 0 treated as in Fig. S2D and stained […]
# average ± SD per location relative to the ON per genotype by unpaired t-test. *p < 0.05, […]
# (F) ERG of r d1 0 mice at P25 and treated as in Fig. S2D were performed in response to a STR. […]
Sequence,BAX level in photoreceptors (immunofluorescence) [1],BCL2 level in photoreceptors (immunofluorescence) [1],outer nuclear layer (ONL) thickness vs vehicle-treated or untreated eyes [2],photoreceptor outer segment (OS) length vs vehicle-treated or untreated eyes [2],ONL thickness (spider plots) [2],"ONL thickness ([2]; rd10 mice, daily eye drops 5 μl of 1 mg/ml P15 until P24, assayed at P25)","ONL thickness compared to vehicle ([2]; rd10 mice, eye drops every other day P15 until P23, assayed at P25)"
QRTESIIARALYYDLIS [H105A],significantly decreased,increased,thicker outer nuclear layer,longer OS,to almost wild-type levels,rescue in the ONL thickness,rescue
QRTESIIHRALYYDLIS [17-mer],significantly decreased,increased,thicker outer nuclear layer,longer OS,restored ONL thickness,,
